Results taken from patent publication US5710124A, “Method for combatting bovine mastitis” (Novartis Corporation, priority 1993, dated 1998).
Ends that are not written are not given here.

How the values were obtained:
[1] = test system: Staphylococcus aureus Newbold 305; experiment: Effect on S. aureus in milk (cfu, percent survival); type: cell-based; details: for % survival: 37° C. 30 min
Method: Effect of Gallidermin on […] in milk Staphylococcus aureus Newbold 305 was grown in M17 broth (Merck) at 37° C. to an optical density at 600 nm of 1.0. Cells were collected by centrifugation and washed in 20 mM Tris-HCl pH 8.0. The bacterial pellet was resuspended in milk at a density of about 10^7 cells/ml. 1 ml aliquots of this suspension were incubated in eppendorf tubes with various amounts of Nisin, Lacticin 481 and Gallidermin. Incubations were at 37° C. for 30 min. A control with no antimicrobial added was run in parallel. After incubation the samples were centrifuged to obtain the cellular pellet, which was washed 2 times with 1 ml of 20 mM Tris-HCl pH 8.0 and resuspended in 1 ml of this buffer. […] of the appropriate dilutions were plated on M17 agar plates containing 0.5% glucose and incubated overnight at 37° C. Colony forming units (cfu) were determined and percent survival was calculated relative to the control.

[2] = test system: Staphylococcus aureus; experiment: Subclinical bovine mastitis infection model, intramammary treatment; type: in vivo, cows
From the text: Preliminary experiments for evaluating the potential of Gallidermin, Epidermin or of their pharmaceutically acceptable acid addition salts in subclinical bovine mastitis
Non-infected cows are selected based on non recovery of Staphylococcus aureus from two milk samples taken one day apart from all quarters. Then, 3 quarters are inoculated via the intramammary route using a suspension of Staphylococcus aureus. The 4th quarter serves as control. During the two to four weeks after inoculation, milk samples are taken from all quarters at least 3 times to see whether Staphylococcus aureus can be recovered, and therefore whether the quarter has become infected. A quarter is defined as infected, if Staphylococcus aureus is recovered from at least two of these milk samples. Treatments are assigned randomly to infected quarters and injected via the intramammary route. Milk samples are taken daily until a minimum of 14 days after the last treatment. A quarter is considered as cured if milk samples from that quarter become negative (i.e., no Staphylococcus aureus is recovered) within 7 days after the last treatment and stay negative throughout the 14 day sampling period.
This experimental model is used to have a fixed framework on which to evaluate treatments. To work with Staphylococcus aureus has the advantage that it is the most difficult Gram positive bacterium to treat and one of the most important bacteria causing bovine mastitis. Therefore, cure rates should be expected to be lower than for other Gram positive bacteria, such as Streptococci and coagulase-negative Staphylococci.
In addition, the infection is mild as it should be for subclinical mastitis.
To optimize work load in relation to man power, 8 to 16 cows are enrolled in each trial. Trials normally last 5 weeks.

[3] = test system: S. aureus Newbold 305; experiment: MIC plate assay; type: cell-based, Staphylococcus aureus
Method: (§1) The MICs (Minimal Inhibitory Concentrations) of Gallidermin against […] and Streptococcus diacetylactis were determined. S. aureus Newbold 305 is a causative agent of Mastitis, S. diacetylactis is used in the manufacture of yoghurt and cheese.
(§2) Appropriate dilutions Gallidermin (300, 100, 30, 10, 3, 1, 0.3, 0.1 µg/ml) were prepared in milk and in M17 broth (Merck) and allowed to stand at room temperature for 30 min.
(§3) Then, […] aliquots of the solutions were spotted on M17 agar plates containing 0.5% of glucose. These plates had been overlaid with softagar (0.5% agarose) seeded with 1% of an A600=1 culture of either S. aureus or S. diacetylactis. The spots were allowed to dry, then the plates were incubated at 30° C. overnight.
(§4) The MICs were determined as the lowest concentration of antimicrobial protein causing the formation of a clear halo in the bacterial lawn.

[4] = test system: Streptococcus diacetylactis; experiment: MIC plate assay; type: cell-based; details: for MIC: S. diacetylactis
Method: as §1, §2, §3, §4

Substance: Lacticin 481
- activity against Staphylococcus aureus in the presence of milk [1]: strongly inhibited
- % survival ([1]; 1 µg/ml): 74%
- % survival ([1]; 3 µg/ml): 51%
- % survival ([1]; 10 µg/ml): 36%
- % survival ([1]; 30 µg/ml): 30%
- % survival ([1]; 100 µg/ml): 12%

Substance: Gallidermin (IASKFLCTPGCAKTGSFNSYCC; not fully specified; ends and bridges not checked; also: lantibiotic; UniProt P21838 31-52, looked up) [natural product produced by the microorganism Staphylococcus gallinarum; lanthionine containing peptide]
- % of treated group positive ([2]; 3 × 1 mg, 27 qutrs, day 0 (before treatment)): 93%
- % of treated group positive ([2]; 3 × 1 mg, 27 qutrs, day 1): 37%
- % of treated group positive ([2]; 3 × 1 mg, 27 qutrs, day 2): 11%
- % of treated group positive ([2]; 3 × 1 mg, 27 qutrs, day 3): 26%
- % of treated group positive ([2]; 3 × 1 mg, 27 qutrs, day 4): 56%
- % of treated group positive ([2]; 3 × 1 mg, 27 qutrs, day 5): 59%
- % of treated group positive ([2]; 3 × 1 mg, 27 qutrs, day 7): 56%
- % of treated group positive ([2]; 3 × 1 mg, 27 qutrs, day 8): 56%
- % of treated group positive ([2]; 3 × 1 mg, 27 qutrs, day 9): 52%
- % of treated group positive ([2]; 3 × 1 mg, 27 qutrs, day 10): 56%
- % of treated group positive ([2]; 3 × 1 mg, 27 qutrs, day 11): 56%
- % of treated group positive ([2]; 3 × 1 mg, 27 qutrs, day 12): 52%
- % of treated group positive ([2]; 3 × 1 mg, 27 qutrs, day 14): 48%
- % of treated group positive ([2]; 3 × 1 mg, 27 qutrs, day 15): 52%
- % of treated group positive ([2]; 14 × 0.1 mg, 24 qutrs, day 0 (before treatment)): 96%
- % of treated group positive ([2]; 14 × 0.1 mg, 24 qutrs, day 1): 88%
- % of treated group positive ([2]; 14 × 0.1 mg, 24 qutrs, day 2): 88%
- % of treated group positive ([2]; 14 × 0.1 mg, 24 qutrs, day 3): 71%
- % of treated group positive ([2]; 14 × 0.1 mg, 24 qutrs, day 4): 58%
- % of treated group positive ([2]; 14 × 0.1 mg, 24 qutrs, day 5): 67%
- % of treated group positive ([2]; 14 × 0.1 mg, 24 qutrs, day 7): 50%
- % of treated group positive ([2]; 14 × 0.1 mg, 24 qutrs, day 8): 67%
- % of treated group positive ([2]; 14 × 0.1 mg, 24 qutrs, day 9): 71%
- % of treated group positive ([2]; 14 × 0.1 mg, 24 qutrs, day 10): 88%
- % of treated group positive ([2]; 14 × 0.1 mg, 24 qutrs, day 11): 83%
- % of treated group positive ([2]; 14 × 0.1 mg, 24 qutrs, day 12): 88%
- % of treated group positive ([2]; 14 × 0.1 mg, 24 qutrs, day 14): 79%
- % of treated group positive ([2]; 14 × 0.1 mg, 24 qutrs, day 15): 88%
- % of treated group positive ([2]; 14 × 0.1 mg, 24 qutrs, day 16): 83%
- % of treated group positive ([2]; 14 × 0.1 mg, 24 qutrs, day 17): 83%
- % of treated group positive ([2]; 14 × 0.1 mg, 24 qutrs, day 19): 79%
- % of treated group positive ([2]; 14 × 0.1 mg, 24 qutrs, day 21): 83%
- MIC ([3]; dilutions in M17 broth): 1 mug/ml
- MIC ([3]; dilutions in milk): 0.3 mug/ml
- activity against Staphylococcus aureus in the presence of milk [1]: retains a high specific activity
- % survival ([1]; 0.3 µg/ml): 29%
- % survival ([1]; 1 µg/ml): 12%
- % survival ([1]; 3 µg/ml): 1%
- % survival ([1]; 10 µg/ml): 0.01%
- MIC ([4]; dilutions in M17 broth): 0.3 mug/ml
- MIC ([4]; dilutions in milk): 1 mug/ml
- activity against Streptococcus diacetylactis in milk versus broth ([4]; milk and M17 broth): comparable activities

Substance: Nisin
- activity against Staphylococcus aureus in the presence of milk [1]: strongly inhibited
- % survival ([1]; 3 µg/ml): 65%
- % survival ([1]; 10 µg/ml): 15%
- % survival ([1]; 30 µg/ml): 1.8%
- % survival ([1]; 100 µg/ml): 0.2%
